# Data from PMC8648660, “Multifunctional thiosemicarbazones targeting sigma receptors: in vitro and in vivo antitumor activities in pancreatic cancer models” (Cellular Oncology, 2021).
# Legend:
# [1] = tested on: caspase 7; assay: Caspase 7 activity assay in pancreatic cancer cells; assay type: cell-based, human and murine; details: 50 µM, 2 h
# Method: Caspase 3, caspase 7 and caspase 9 activation was measured using a Caspase 3/7 Fluorescence Assay kit (Cayman Chemical, Ann Arbor, MI, USA) and a Caspase 9 fluorometric assay kit (Enzo Life Science, Roma, Italy). The results are expressed as nmol of the hydrolyzed substrate of each caspase/mg cellular proteins, according to a previously set titration curve.
# [2] = tested on: ATG5, ATG7, ATG12, beclin 1, p62, LC3; assay: Western blotting of autophagy and sequestration markers; assay type: cell-based, human and murine; details: 50 µM, 2 h
# Method: (§1) Cells were rinsed with ice-cold lysis buffer (50 mM, Tris, 10 mM EDTA, 1 % v/v Triton-X100), supplemented with protease inhibitor cocktail set III (80 µM aprotinin, 5 mM bestatin, 1.5 mM leupeptin, 1 mM pepstatin; Calbiochem, San Diego, CA, USA), 2 mM phenylmethylsulfonyl fluoride and 1 mM Na3VO4, then sonicated and centrifuged at 13,000 g for 10 min at 4 °C. 20 µg protein extracts were subjected to SDS-PAGE and probed with antibodies directed against ATG5, ATG7, ATG12, beclin, p62, LC3, GRP78, ATF6, IRE-1α and PERK (all from Abcam, Cambridge, UK), followed by incubation with a peroxidase-conjugated secondary antibody (Bio-Rad Laboratories). Next, the membranes were washed with Tris-buffered saline-Tween 0.1 % v/v solution, and proteins were detected by enhanced chemiluminescence (Bio-Rad Laboratories). To check for equal loading, the samples were probed with an anti-β-tubulin antibody (Santa Cruz Biotechnology Inc., Santa Cruz, CA, USA).
# [3] = molecular target: T1, sigma-2 receptors (Mus musculus, UniProt Q8VD00); assay: Flow cytometry displacement of sigma-2 fluorescent ligand NO1 in murine KP02 cells; assay type: binding
# T1 construct: endogenous in cells; host or cells: KP02 (murine pancreatic cancer cells)
# Method: Flow cytometry studies to detect receptor densities and ligand binding affinities were carried out according to Abate et al. and Niso et al., for the sigma-1 and sigma-2 receptors, respectively. […] At the end of the incubation periods, the cells were washed twice with PBS, detached with […] Cell Dissociation Solution (Sigma Chemical Co.) for 10 min at 37 °C, centrifuged at 13,000 g for 5 min and resuspended in 500 µl PBS. Fluorescence was recorded using a Bio-Guava® easyCyte™ 5 Flow Cytometry System (Millipore, Billerica, MA, USA) equipped with a 530 nm band pass filter. For each analysis, 50,000 events were collected and analyzed using InCyte software (Millipore).
# [4] = tested on: PANC-1 xenografts; assay: In vivo xenograft assay, PANC-1; parameters: species or system mice; details: for tumor growth / intratumor apoptosis (cleaved caspase 3) and lipid peroxidation: 30 days
# Method: 2 × 10^5 PANC-1 or Mia-PaCa2 cells were inoculated subcutaneously in the right flank of 6-week old C57BL/6 female nude mice (Charles River Laboratories Italia, Calco), housed (5 per cage) under a 12 h light/dark cycle, with food and drinking water provided ad libitum. Tumor growth was measured daily by caliper, according to the equation (LxW^2)/2, where L = tumor length and W = tumor width. When tumors reached a volume of 100 mm^3, the mice (n = 8/group) were randomized in the following groups and treated daily for 15 days or 30 days intraperitoneally as reported: (1) Vehicle group (100 µl saline solution), (2) FA4^low group (750 nmol FA4 in 100 µl saline solution), (3) FA4^high group (1500 nmol FA4 in 100 µl saline solution) and (4) Gemcitabine group (20 mg/kg gemcitabine, twice a week). Tumor volumes and animal weights were monitored daily. Animals were euthanized at day 18 or 36 after randomization with zolazepam (0.2 ml/kg) and xylazine (16 mg/kg). Next, tumors were excised and paraffin-embedded. Sections were immuno-stained for cleaved caspase 3 (Cell Signalling Technology, Danvers, MA, USA) or with an anti-malondialdehyde antibody (Abcam), followed by a peroxidase-conjugated secondary antibody (Dako, Glostrup, Denmark). The sections were examined under a Leica DC100 microscope (Leica, Wetzlar, Germany). Quantification of the immunohistochemical analyses was performed using ImageJ software (https://imagej.nih.gov/). The staining intensities were expressed as arbitrary units and considered 1 in the vehicle group.
# [5] = tested on: human (MiaPaCa2, PANC-1, AsPC1, BxPC3) and murine (KP02, PANC02) pancreatic cancer cells; assay: Cell viability MTT assay 48 h, panel of pancreatic cancer cell lines; assay type: cell-based; details: range over six pancreatic cancer cell lines; read-out: EC50 cytotoxic activity in all the cell lines studied
# Method: (§2) Cell viability was assessed using a MTT assay at 48 h. On day 1, 25,000 cells/well were seeded into 96-well plates in 100 µl culture medium. On day 2, drugs at concentrations ranging from 1 µM to 100 µM were added. In all experiments the drug-solvents (EtOH, DMSO) were added as controls to evaluate possible solvent cyto-toxicities. After the established incubation time with drugs (48 h), MTT (0.5 mg/ml) was added to each well, and after 3–4 h incubation at 37 °C, the supernatants were removed. The formazan crystals formed were solubilized using 100 µl DMSO/EtOH (1:1) after which the absorbance values at 570 and 630 nm were determined using a microplate reader Victor 3 from PerkinElmer Life Sciences.
# [6] = tested on: AspC1 cells; assay: Cell viability MTT assay 48 h; assay type: cell-based; details: Homo sapiens, MTT 48 h, read-out: Activity EC50 ± SEM, AspC1
# Method: as §2
# [7] = tested on: HPDE cells; assay: Cell viability MTT assay 48 h; assay type: cell-based; details: Homo sapiens, MTT 48 h, read-out: Activity EC50 ± SEM, HPDE (normal cells)
# Method: as §2
# [8] = tested on: KP02 cells; assay: Cell viability MTT assay 48 h; assay type: cell-based; details: Mus musculus; MTT 48 h; read-out: Activity EC50 ± SEM, KP02
# Method: as §2
# [9] = tested on: MiaPaCa2 cells; assay: Cell viability MTT assay 48 h; assay type: cell-based; details: Homo sapiens, MIA PaCa-2; MTT 48 h; read-out: Activity EC50 ± SEM, MiaPaCa2
# Method: as §2
# [10] = tested on: PANC-1 cells; assay: Cell viability MTT assay 48 h; assay type: cell-based; details: Homo sapiens
# Method: as §2
# [11] = tested on: BxPC3 cells; assay: Cell viability MTT assay 48 h; assay type: cell-based; details: Homo sapiens, BXPC-3; MTT 48 h; read-out: Activity EC50 ± SEM, BxPC3
# Method: as §2
# [12] = tested on: GRP78, ATF6, IRE1 and PERK; assay: Western blotting of ER stress markers in pancreatic cancer cells; assay type: cell-based, human and murine; details: 50 µM, 2 h
# Method: as §1
# T1 sequence (Q8VD00 whole entry): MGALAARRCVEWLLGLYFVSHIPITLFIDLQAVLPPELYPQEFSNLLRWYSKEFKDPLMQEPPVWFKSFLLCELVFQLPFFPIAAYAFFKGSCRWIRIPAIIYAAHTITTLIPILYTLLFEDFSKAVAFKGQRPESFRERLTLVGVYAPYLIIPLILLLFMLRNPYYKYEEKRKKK
smiles,measurement,setting,value
"CN(C)C(=S)N/N=C1\C(=O)N(CCCCN2CCC3(CC2)OCc2ccccc23)c2ccccc21 [FA4, (Z)-2-(1-(4-(3 H-spiro[isobenzofuran-1,4’-piperidine]-1’-yl)butyl)-2-oxoindolin-3-ylidene)-N,N-dimethylhydrazinecarbothioamide]",caspase 7 activation,[1],activated by FA4 in all cell lines except MiaPaCa2
same,"levels of autophagosome proteins, p62 and LC3 conversion",[2],"reduced the levels of all the above-mentioned proteins as well as the LC-I/LC-II conversion in responsive cells, but not in MiaPaCa2 cells"
same,IC50,[3],11.6 ± 1.5 nM
same,tumor volume vs vehicle,"[4]; FA4 750 nmol (low) and 1500 nmol (high) i.p. daily, 15 days",tumors were significantly smaller
same,tumor growth,[4]; FA4 high dosage 1500 nmol i.p. daily,regression of tumor growth
same,intratumor apoptosis (cleaved caspase 3) and lipid peroxidation,[4]; FA4 high dosage,became more pronounced
same,tumor growth,[4]; FA4 low dosage 750 nmol i.p. daily,cytostatic effect
same,intratumor apoptosis (cleaved caspase 3) and lipid peroxidation,[4]; FA4 low dosage,low or undetectable
same,EC50,[5],880 to 3010 nM
same,EC50,[6],1390 ± 300 nM
same,EC50,[7],6110 ± 1100 nM
same,EC50,[8],880 ± 100 nM
same,EC50,[9],1980 ± 400 nM
same,EC50,"[10]; MTT 48 h, read-out: Activity EC50 ± SEM, PANC-1",3010 ± 800 nM
same,IC50,[10]; read-out: IC50 in PANC1 cells (discussion),3010 nM
same,EC50,[11],1360 ± 200 nM
same,protein expression of ER stress sensors and executers (Western blot),[12],"in all cell lines except MiaPaCa2, this thiosemicarbazone was able to increase the expression of ER stress sensors and executers"
